Patent US10640511B2, “Hepatitis B antiviral agents” (ENANTA PHARMACEUTICALS, INC., priority 2016, dated 2020)

Tests used:
HBV = assay: HepAD38 antiviral assay: reduction of viral product accumulation (virion DNA by qPCR; HBsAg/HBeAg ELISA); format: cell-based, hepatitis B virus (HBV); settings: Hepatitis B virus, 120 h; HepAD38 cells; 50% reduction of viral product accumulation relative to no drug controls; harvest five days after compound addition
Procedure: Methods: HepAD38 cells are maintained as previously reported (Ladner et al, Antimicrob. Agents Chemother. 1997, […], 1715). Briefly, cells are passaged upon attaining confluency in DMEM/F12 media in the presence of 10% FBS, Penn/Strep, 250 μg/mL G418, and 1 μg/ml tetracycline. Novel compounds are screened by first washing cells three times with PBS to remove tetracycline, and plating in 96 well plates at 35,000 cells/well. Compounds dissolved in DMSO are then diluted 1:200 into wells containing cells. Five days after compound addition, material is harvested for analysis. For an extended 8 day analysis, cells are plated and treated as described above, but media and compound are refreshed on d2 and d5 post initial treatment.
On harvest day, virion DNA is obtained by lysing with Sidestep Lysis and Stabilization Buffer and then quantified via quantitative real time PCR. Commercially available ELISA kits are used to quantitate the viral proteins HBsAg (Alpco) or HbeAg (US Biological) by following the manufacturer's recommended protocol after diluting samples to match the linear range of their respective assays. Irrespective of readout, compound concentrations that reduce viral product accumulation in the cell lysates or supernatants by 50% relative to no drug controls (EC50) are reported; EC50 ranges are as follows: A<0.1 μM; B 0.1-1 μM; C>1 μM.

[1] = Compound toxicity, ATPLite total ATP levels; format: cell-based; settings: human, HepG2 cells, 50% reduction of total ATP levels (ATPLite) three days after compound addition
Procedure: Compound toxicity is evaluated by seeding cells at 15,000 cells/well and treating with compound as described above.

SMILES | EC50 (HBV) [nM] | CC50 at 3 days ([1]; class symbols) [nM] | CC50 at 3 days ([1]; numeric bound) [nM]
Cn1ccc(C2=C3C[C@H](NS(=O)(=O)Cc4ccccc4)CN3C(c3nccs3)=N[C@H]2c2ccc(F)cc2Cl)n1 [Example 9] | < 100 |  | 
Cn1ccc(C2=C3C[C@H](NS(=O)(=O)C4CCCC4)CN3C(c3nccs3)=N[C@H]2c2ccc(F)cc2Cl)n1 [Example 12] | < 100 |  | 
O=S(=O)(N[C@H]1CC2=C(c3ccccn3)[C@H](c3ccc(F)cc3Cl)N=C(c3nccs3)N2C1)C1CC1 [Example 23] | 100 to 1000 |  | 
Cn1ccc(C2=C3C[C@H](NS(=O)(=O)C4CC4)CN3C(c3nccs3)=N[C@@]2(C)c2ccc(F)cc2)n1 [Example 5] | < 100 |  | 
O=S(=O)(N[C@H]1CC2=C(c3ncco3)[C@H](c3ccc(F)cc3Cl)N=C(c3nccs3)N2C1)C1CC1 [Example 15] | < 100 |  | 
Cn1ccc(C2=C3C[C@H](NS(=O)(=O)C4CCCCC4)CN3C(c3nccs3)=N[C@H]2c2ccc(F)cc2Cl)n1 [Example 13] | < 100 |  | 
Cn1ccc(C2=C3CC(NC(=O)OC(C)(C)C)CN3C(c3nccs3)=N[C@H]2c2ccc(F)cc2Cl)n1 (some centres unmarked) [Example 1] | < 100 | < 10000 | 
Cc1coc(C2=C3C[C@H](NS(=O)(=O)C4CC4)CN3C(c3nccs3)=N[C@H]2c2ccc(F)cc2Cl)n1 [Example 21] | < 100 |  | 
Cn1ccc(C2=C3C[C@H](NS(C)(=O)=O)CN3C(c3nccs3)=N[C@H]2c2ccc(F)cc2Cl)n1 [Example 6] | < 100 |  | 
[2H]C([2H])([2H])n1ccc(C2=C3C[C@H](NS(=O)(=O)C4CC4)CN3C(c3nccs3)=N[C@H]2c2ccc(F)cc2Cl)n1 [Example 17] | < 100 | > 25000 | 
Cn1ccc(C2=C3C[C@H](NS(N)(=O)=O)CN3C(c3nccs3)=N[C@H]2c2ccc(F)cc2Cl)n1 [Example 20] | < 100 | > 25000 | 
CCn1ccc(C2=C3C[C@H](NS(=O)(=O)C4CC4)CN3C(c3nccs3)=N[C@H]2c2ccc(F)cc2Cl)n1 [Example 22] | < 100 |  | > 6000
Cn1ccc(C2=C3C[C@H](NS(=O)(=O)c4ccccc4)CN3C(c3nccs3)=N[C@H]2c2ccc(F)cc2Cl)n1 [Example 14] | < 100 |  | 
Cn1ccc(C2=C3C[C@H](NS(=O)(=O)C4(C)CC4)CN3C(c3nccs3)=N[C@H]2c2ccc(F)cc2Cl)n1 [Example 10] | < 100 |  | 
Cn1cc(C2=C3C[C@H](NS(=O)(=O)C4CC4)CN3C(c3nccs3)=N[C@H]2c2ccc(F)cc2Cl)cn1 [Example 19] | < 100 |  | 
Cn1ccc(C2=C3C[C@H](NS(=O)(=O)C4CC4)CN3C(c3nccs3)=NC2(C)c2ccc(F)cc2)n1 (some centres unmarked) [Example 4] | < 100 |  | 
Cn1ccc(C2=C3C[C@H](NS(=O)(=O)C4CC4)CN3C(c3nccs3)=N[C@@]2(C)c2ccc(F)c(F)c2)n1 [Example 16] | < 100 |  | 
Cc1cnc(C2=C3C[C@H](NS(=O)(=O)C4CC4)CN3C(c3nccs3)=N[C@H]2c2ccc(F)cc2Cl)o1 [Example 18] | < 100 | > 25000 | 
CC(C)S(=O)(=O)N[C@H]1CC2=C(c3ccn(C)n3)[C@H](c3ccc(F)cc3Cl)N=C(c3nccs3)N2C1 [Example 8] | < 100 |  | 
Cn1ccc(C2=C3C[C@H](NS(=O)(=O)C4CC4)CN3C(c3nccs3)=N[C@H]2c2ccc(F)cc2Cl)n1 [Example 3] | < 100 |  | 
Cn1ccc(C2=C3C[C@H](NS(=O)(=O)C4CCC4)CN3C(c3nccs3)=N[C@H]2c2ccc(F)cc2Cl)n1 [Example 11] | < 100 |  | 
CCS(=O)(=O)N[C@H]1CC2=C(c3ccn(C)n3)[C@H](c3ccc(F)cc3Cl)N=C(c3nccs3)N2C1 [Example 7] | < 100 |  | 
Cn1ccc(C2=C3CC(NS(=O)(=O)C4CC4)CN3C(c3nccs3)=N[C@H]2c2ccc(F)cc2Cl)n1 (some centres unmarked) [Example 2] | < 100 | > 25000 | 
